Measured values as given in article PMC9918186, “Interaction of Positively Charged Oligopeptides with Blood Plasma Proteins” (International Journal of Molecular Sciences, 2023).

What was measured:
[1] = previous studies; cited from earlier work
Description: (§1) The subject of this study was oligopeptides with the following sequences: Lys-Dab-Dab-Gly-Orn-Pro-His-Lys-Arg-Lys-Dbt, Lys-Dab-Ala-Gly-Orn-Pro-His-Lys-Arg, and Lys-Dab-Dab-Gly-Orn-Pro-Phe(2-F)-Lys-Arg, which are referred to as L1, L2, and L3, respectively, in the remainder of this work. The investigated oligopeptides consist of an amino group (NH2) in the side chain of unique unnatural amino acids such as Dab (2,4-diaminobutyric acid) and Orn (2,5-diaminopentanoic acid) and standard amino acids such as Lys, and N-terminus and in Dbt in the C-terminal region. Additionally, the presence of the g ...

[2] = tested on: oxygen-free radical species (ROS); settings: previous studies; cited from earlier work
Description: as §1

[3] = tested on: γ-globulin fraction (GGF); assay: Fluorescence quenching of GGF by peptides L1–3; format: binding; settings: for Stern–Volmer constant Ksv / binding constant Kb / logKb: GGF 1.0 µM, phosphate buffer; for Stern–Volmer constant Ksv: peptide 0.25–2.0 µM, λex 280 nm; for logKb: double log regression; for quenching rate constant kq: from Ksv with τ0 10^−8 s assumed
Method: Fluorescence spectroscopy was carried out to characterize the mechanism of the interaction between three plasma proteins, BSA, AAG, and GGF, with the studied peptides. The fluorescence spectra of protein were collected during titration of L1–L3. The excitation wavelength was set at λ = 280 nm (both Trp and Tyr residues were excited).
To confirm this, the fluorescence data were further analyzed by the Stern–Volmer Equation (1) after correction due to the infer filter effect (2):(1) F0/F=1+kqτ[Q]=1+KSV (2) Fcorr=Fobs10^(Aex+Aem)/2 where F0 and F are the fluorescence intensities (after correction) of the protein and protein in the presence of L1–3, respectively, kq is the quenching rate constant, τ0 the average lifetime, [Q] is the L1–3 concentration, Ksv is the Stern–Volmer constant, and Fcorr, and Fobs are the corrected and observed fluorescence intensities, respectively. Aex and Aem are the absorbance values at excitation and emission wavelengths, respectively. A linear regression fit was used to calculate the value of the Stern–Volmer constant (Ksv). Then, assuming the average lifetime of the fluorophore in the excited state for a biomolecule as 10^−8 s, the quenching rate constant (kq) was computed. For dynamic quenching, the maximum scatters collision quenching rate constant for different quenchers with the biopolymers was reported to be 2 × 10^10 dm^3mol^−1s^−1 [55, 56]. […] Collisional quenching occurs when the excited-state fluorophore is deactivated by contact with some other molecule in solution (by collisions). […] This is a dynamic mechanism of quenching. The quenching constant characterizes the quenching mechanism. The maximum value for collisional quenching is 2 × 10^10 dm^3mol^−1s^−1. […] For further confirmation, measurements were made at, in addition to 297 K, temperatures 303 and 308 K. Experimental data points were fitted and analyzed using Equation (1).
Both for the complexes with BSA and with GGF, the binding constant (Kb) and the binding stoichiometry (n) were calculated. […] The values of Kb and n were calculated from the slope and the intercept of the log [(F0 − F)/F] versus log [Q] plot (Figure 2).
The forces involved in the interaction can be identified by measurement at different temperatures and then by thermodynamic analysis. The signs of the thermodynamic parameters identify the type of interactions. The enthalpy change (ΔH°), the entropic change (ΔS°), and the free energy change (ΔG°) were calculated from Equations (4) and (5):(4) […]=−ΔH^°/RT+ΔS^°/R (5) ΔG^°=ΔH^°−TΔS^°=−RTlnKb where Kb is the binding constant and R is the universal gas constant. To determine the thermodynamic parameters, the van’t Hoff plot was first conducted, i.e., the temperature dependence of the binding constant, according to Equation (4). The Kb values at the three temperatures were fitted by the linear regression method. The values of ΔH and ΔS were calculated from the slope and intercept at the fitted line. Next, the free energy change (ΔG°) was obtained from Equation (5).

BSA = biological target: T1, BSA (Bos taurus, UniProt P02769); assay: CD spectroscopy, secondary structure of BSA with peptide; parameters: species or system bovine
T1 construct: purchased Sigma Aldrich
Method: Circular dichroism spectroscopy, similar to fluorescence and FTIR spectroscopies, is a useful method to determine the changes in the secondary structure of proteins in case of the presence of compounds that can interact with protein molecules. Therefore, in this study, the CD spectra for BSA protein and GGF fraction, in the absence and presence of analyzed peptides L1, L2, and L3, were measured (Figure 3). We wanted to check the changes in the course of the spectrum after adding every portion of the analyzed peptides, from 1:0 to 1:1.5 protein to L1–L3 molar ratios.
Circular dichroism (CD) spectroscopy was performed using the Jasco J-1500 magnetic circular dichroism spectrometer (JASCO International CO., Tokyo, Japan). All measurements for the protein solutions in the absence and presence of the analyzed peptides L1, L2, and L3 were made at room temperature under simulated physiological conditions in pH 7.4, in phosphate buffer as a solvent. The phosphate buffer not only controls the stable pH but also imitates the biological environments. However, its use leads to some limitations for CD measurements due to containing NaCl and KCl. The spectra were baseline corrected (phosphate buffer was used as a baseline) and were measured in the range of 205–250 nm at a scan rate speed of 50 nm/min, with a response time of 1 s, and a 10 mm or 5 mm path length for BSA and GGF, respectively. The concentrations of proteins and analyzed peptides were 1 × 10^−6 mol/dm^3 and 1 × 10^−3 mol/dm^3, respectively. Experiments were performed with protein to ligand molar ratios: 1:0, 1:0.25, 1:0.5, 1:0.75, 1:1, and 1:1.5. In total, 3 cm^3 of a solution of each protein was titrated by successive additions of analyzed peptides. The results were analyzed by CD Multivariate Calibration Creation and CD Multivariate SSE programs (JASCO International CO., Tokyo, Japan), with the conversion of protein concentrations for mean residue molar concentrations.

[4] = BSA:peptide 1:0.25, pH 7.4 phosphate buffer
[5] = BSA:peptide 1:0.5, pH 7.4 phosphate buffer
[6] = BSA:peptide 1:0.75, pH 7.4 phosphate buffer
[7] = BSA:peptide 1:1, pH 7.4 phosphate buffer
[8] = BSA:peptide 1:1.5, pH 7.4 phosphate buffer

T1 sequence (P02769 25-607): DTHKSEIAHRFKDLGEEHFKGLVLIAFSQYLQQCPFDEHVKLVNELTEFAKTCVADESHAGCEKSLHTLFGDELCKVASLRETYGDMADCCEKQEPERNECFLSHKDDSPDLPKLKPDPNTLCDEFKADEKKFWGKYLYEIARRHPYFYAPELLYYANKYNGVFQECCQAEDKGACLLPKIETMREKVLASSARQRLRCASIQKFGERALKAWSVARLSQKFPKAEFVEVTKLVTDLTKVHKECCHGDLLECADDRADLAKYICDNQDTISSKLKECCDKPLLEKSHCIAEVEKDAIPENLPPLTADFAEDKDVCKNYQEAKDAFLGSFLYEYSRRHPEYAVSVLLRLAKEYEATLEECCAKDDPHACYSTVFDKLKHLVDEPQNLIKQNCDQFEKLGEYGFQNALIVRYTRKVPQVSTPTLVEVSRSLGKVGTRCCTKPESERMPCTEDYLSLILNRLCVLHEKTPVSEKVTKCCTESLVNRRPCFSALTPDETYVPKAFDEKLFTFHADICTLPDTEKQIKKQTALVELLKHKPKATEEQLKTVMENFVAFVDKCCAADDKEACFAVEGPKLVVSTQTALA

Substance: Lys-Dab-Dab-Gly-Orn-Pro-His-Lys-Arg-Lys-Dbt [L1]
- anti-inflammatory activity [1]: possess anti-inflammatory activity
- effect on level of oxygen-free radical species (ROS) [2]: reduce the level of oxygen-free radical species (ROS)
- Stern–Volmer constant Ksv ([3]; 297 K, inner-filter corrected): 4.24 ± 0.06 × 10^4 dm^3mol^−1
- binding constant Kb ([3]; 297 K): 10.10 ± 0.24 × 10^4 dm^3mol^−1
- logKb ([3]; 297 K): 5.00 ± 0.12
- quenching rate constant kq ([3]; 297 K): 4.24 ± 0.06 × 10^12 dm^3mol^−1s^−1
- Stern–Volmer constant Ksv ([3]; 303 K): 4.03 ± 0.13 × 10^4 dm^3mol^−1
- binding constant Kb ([3]; 303 K): 6.17 ± 0.25 × 10^4 dm^3mol^−1
- logKb ([3]; 303 K): 4.79 ± 0.20
- quenching rate constant kq ([3]; 303 K): 4.03 ± 0.13 × 10^12 dm^3mol^−1s^−1
- Stern–Volmer constant Ksv ([3]; 308 K): 3.60 ± 0.06 × 10^4 dm^3mol^−1
- binding constant Kb ([3]; 308 K): 2.51 ± 0.12 × 10^4 dm^3mol^−1
- logKb ([3]; 308 K): 4.39 ± 0.21
- quenching rate constant kq ([3]; 308 K): 3.60 ± 0.06 × 10^12 dm^3mol^−1s^−1
- % Other of BSA (BSA; [4]): 24.6%
- % β-Sheet of BSA (BSA; [4]): 6.0%
- % β-Turn of BSA (BSA; [4]): 10.0%
- % α-Helix of BSA (BSA; BSA:peptide 1:0.25, pH 7.4 phosphate buffer, room temperature, BSA 1 µM): 59.4%
- % Other of BSA (BSA; [5]): 24.8%
- % α-Helix of BSA (BSA; [5]): 59.2%
- % β-Sheet of BSA (BSA; [5]): 5.9%
- % β-Turn of BSA (BSA; [5]): 10.1%
- % Other of BSA (BSA; [6]): 25.0%
- % α-Helix of BSA (BSA; [6]): 58.6%
- % β-Sheet of BSA (BSA; [6]): 6.3%
- % β-Turn of BSA (BSA; [6]): 10.1%
- % Other of BSA (BSA; [7]): 25.0%
- % α-Helix of BSA (BSA; [7]): 58.5%
- % β-Sheet of BSA (BSA; [7]): 6.4%
- % β-Turn of BSA (BSA; [7]): 10.1%
- % Other of BSA (BSA; [8]): 25.1%
- % α-Helix of BSA (BSA; [8]): 58.2%
- % β-Sheet of BSA (BSA; [8]): 6.6%
- % β-Turn of BSA (BSA; [8]): 10.1%
- reduction in the percentage of α-helix of BSA (BSA; from 1:0 to 1:1.5 BSA:peptide): 2.5%
